The values that follow come from PubChem BioAssay (NCI).

Molecules are shown by their SMILES.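 Test compounds were applied to cells in 96-well plates for 48 hours at 5 doses. Here, GI50 denotes the concentration required for 50% inhibition of growth. TGI is the concentration that stops growth completely.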

Some test systems named below: KM20L2 colon; HOP-18 NSCLC; RXF-631 renal; SNB-78 CNS; DMS 273 small cell lung; XF 498 CNS; MDA-N.
Common to all, as to test: NCI tumour cell line growth inhibition, 48 h

On to `Cc1c(C)c2ccc3oc4ccccc4c3c2oc1=O`, for which the TGI with KM20L2 colon, in the test with HOP-18 NSCLC, in the test with RXF-631 renal and with SNB-78 CNS was over 100 µM each time.
On to `C=CCC1(CN(C)C)CC/C(=C\c2ccc(OC)cc2)C1=O` (configuration not stated), for which the TGI in the test on KM20L2 colon is over 100 µM; with HOP-18 NSCLC it was over 100 µM; with RXF-631 renal it was 49 µM; in the test with SNB-78 CNS it was over 100 µM; in the test on DMS 273 small cell lung, over 100 µM.
As to `CC(C)N(C(=O)C12C3C4C5(C#N)C3C1(C#N)C5C42C#N)C(C)C` (configuration not stated), the TGI in the test with XF 498 CNS, in the test with KM20L2 colon, in the test on HOP-18 NSCLC, in the test on SNB-78 CNS and in the test with DMS 273 small cell lung was over 100 µM each time.
With `COC1CCC(OS(C)(=O)=O)C(CO)O1` (configuration not stated), the TGI in the test on XF 498 CNS and in the test with KM20L2 colon was over 100 µM each time.
With `COc1ccc(Nc2nc3cc(N)cc(N)c3nc2-c2ccccc2)cc1`, in the test on MDA-N, the GI50 was 21.6 µM and the TGI is 36 µM.
As to `CSc1ccc2c(cc1=O)[C@@H](NC(=O)c1cccc([N+](=O)[O-])c1)CCc1cc(O)c(O)c(O)c1-2`, the TGI with KM20L2 colon is 56.5 µM; in the test on HOP-18 NSCLC, over 100 µM; in the test with RXF-631 renal it was over 100 µM; with DMS 273 small cell lung, over 100 µM.
Take `CCc1nc(N)nc(N)c1-c1ccc(Cl)c([N+](=O)[O-])c1`: in the test on MDA-N, the TGI was over 100 µM.
`C/C=C(\C)c1cc(=O)c2c(C)cc3c(c2o1)C(=O)c1c(O)c(C2CC(C)(N(C)C)C(OC(C)=O)C(C)O2)cc(C2CC(N(C)C)C(O)C(C)O2)c1C3=O` (configuration not stated) registered a TGI in the test with MDA-N of 4.83 µM.
On the same count and under the same terms, for `O=C(O)CSc1n[nH]c(=O)[nH]c1=O` the value was over 100 µM.
Consider `COC(COC(N)=O)C1=C(N2CC2)C(=O)C(C)=C(N2CC2)C1=O` (configuration not stated), for which the TGI worked out at 0.415 µM with XF 498 CNS; 0.269 µM in the test on MDA-N; 0.525 µM in the test on KM20L2 colon; 0.902 µM in the test on HOP-18 NSCLC; 8.44 µM in the test with SNB-78 CNS; 0.0752 µM with DMS 273 small cell lung.
On to `Cc1ccc(C)c(N2C(=O)C(=O)C(c3nc4ccccc4s3)/C(=N/N)C2=O)c1` (configuration not stated), for which the TGI in the test on XF 498 CNS, with KM20L2 colon, in the test with HOP-18 NSCLC, in the test on SNB-78 CNS and in the test with DMS 273 small cell lung was over 100 µM throughout.
For the molecule `NC(=O)NNC(=O)CCn1[nH]c(=O)c(Cl)c(Cl)c1=O`, the TGI with KM20L2 colon, with HOP-18 NSCLC, with RXF-631 renal, with SNB-78 CNS and in the test on DMS 273 small cell lung was over 100 µM each time.
Consider `CCOC(=O)Cc1c(C)c2cc(C(=O)c3ccccc3)c(O)cc2oc1=O`, for which, in the test with MDA-N, the TGI is over 100 µM.
The same measure, in the same setting: the value for `OCC1C(OCc2ccccc2)C(OCc2ccccc2)C(OCc2ccccc2)CN1Cc1ccccc1` (configuration not stated) was over 100 µM.
Consider `CC1=N/C(=C/c2ccc3c(c2)OCO3)C(=O)O1`, for which the TGI in the test on XF 498 CNS, in the test with KM20L2 colon, with HOP-18 NSCLC, in the test with RXF-631 renal, in the test on SNB-78 CNS and in the test with DMS 273 small cell lung was over 100 µM in each case.
As to `CCN(CC)CCCNc1nccc2c(C)c3c(cc12)c1cnccc1n3C`, the TGI in the test with XF 498 CNS worked out at 0.923 µM; in the test with KM20L2 colon, 1.93 µM; in the test with SNB-78 CNS it was 2.76 µM; in the test with DMS 273 small cell lung, 0.181 µM.
As for `Oc1ccc(C=Nc2ccccc2O)cc1`, the TGI in the test on MDA-N came out at 33.8 µM.
`O=C1C=C(Nc2ccc(Cl)cc2Cl)c2ccccc2C1=O`: the TGI in the test with KM20L2 colon was over 100 µM; with RXF-631 renal, over 100 µM; in the test on SNB-78 CNS, over 100 µM; in the test on DMS 273 small cell lung, 79.5 µM.
`COC(=O)c1cc2c(=O)n(C)c3ccccc3n2c1C(=O)OC`: the TGI is 51.3 µM with XF 498 CNS; over 100 µM with KM20L2 colon; over 100 µM in the test on RXF-631 renal; over 100 µM in the test with SNB-78 CNS; over 100 µM in the test with DMS 273 small cell lung.
Turning to `C=C[C@@H](C)[C@]1(C(=O)OC)CCCC12OCCO2`, the TGI with XF 498 CNS, in the test with KM20L2 colon, in the test on HOP-18 NSCLC and with DMS 273 small cell lung was over 100 µM each time.
Consider `CCOC(OC(C)=O)[C@@H]1C=C[C@H](C)N(c2ccc([N+](=O)[O-])cc2)O1` (some centres not stated), for which the TGI was found to be 32.6 µM in the test with XF 498 CNS; 34.3 µM with KM20L2 colon; 17.8 µM in the test on HOP-18 NSCLC; 25.7 µM in the test with RXF-631 renal; 60.4 µM with SNB-78 CNS; 13.4 µM in the test with DMS 273 small cell lung.
`CC(=O)Nc1ccc(/C=C/C(=O)c2sc(-c3cccnc3)nc2C)cc1`: the TGI in the test on KM20L2 colon, in the test with HOP-18 NSCLC, with SNB-78 CNS and in the test on DMS 273 small cell lung was over 100 µM each time.
Consider `O=C(C(=O)c1cc2ccccc2[nH]1)c1cc2ccccc2[nH]1`, for which the TGI with XF 498 CNS is 336 µM; in the test with KM20L2 colon, over 347 µM; with RXF-631 renal it was over 347 µM; in the test on SNB-78 CNS, over 347 µM; in the test on DMS 273 small cell lung it was over 347 µM.
In turn, `O=C(O)CCNCC(=O)O` showed a TGI in the test with MDA-N of over 100 µM.
On the same count and under the same terms, the value for `Cc1c(-c2cnccn2)ssc1=S` was over 100 µM.
As for `CCC[C@H]1O[C@@H]2CC(=O)O[C@@H]2C2=C1C(=O)C=CC2=O`, the TGI in the test with KM20L2 colon was determined as 43.8 µM; with HOP-18 NSCLC it was 31.9 µM; in the test on SNB-78 CNS it was 45.7 µM; in the test with DMS 273 small cell lung it was 19.5 µM.
For `N#C/C(=C\c1cc(O)cc(O)c1)C(N)=O`, the TGI in the test with XF 498 CNS, with KM20L2 colon, with RXF-631 renal, in the test on SNB-78 CNS and in the test on DMS 273 small cell lung was over 100 µM in each case.
`C=C(C)[C@H]1CC[C@@]2(C)C(C1)[C@H](C)CC[C@@H]2O` (some centres not stated): the TGI in the test with XF 498 CNS, with KM20L2 colon, in the test with HOP-18 NSCLC, in the test on RXF-631 renal, in the test with SNB-78 CNS and with DMS 273 small cell lung was over 100 µM each time.
On to `Cc1nc2sccn2c1C(=O)NN`, for which the TGI in the test on XF 498 CNS, with KM20L2 colon, in the test on HOP-18 NSCLC, in the test with RXF-631 renal and in the test on DMS 273 small cell lung was over 100 µM in each case.
Take `O=C1[C@H]2ON(c3ccccc3)C(c3ccc([N+](=O)[O-])cc3)[C@H]2C(=O)N1c1ccc(Cc2ccc(N3C(=O)[C@@H]4ON(c5ccccc5)C(c5ccc([N+](=O)[O-])cc5)[C@@H]4C3=O)cc2)cc1` (some centres not stated): the TGI with KM20L2 colon, in the test with HOP-18 NSCLC, in the test with RXF-631 renal, in the test on SNB-78 CNS and in the test with DMS 273 small cell lung was over 100 µM throughout.
`CCc1cccc(C(C)C)c1NC(=O)C(=O)C1C(=O)Nc2ccccc2S1=O` (configuration not stated) displayed a TGI with MDA-N of over 100 µM.
Regarding `CN(Cc1ccccc1)Cn1ccnc1`, the TGI in the test with MDA-N is over 100 µM.
Turning to `COC(=O)[C@@H]1c2cc3c(c(O)c2[C@@H](OC2OC(C)C(OC)C(C)(OC)C2OC)C[C@]1(C)O)C(=O)c1c(O)cc2c(c1C3=O)O[C@H]1O[C@]2(C)[C@H](O)[C@@H](N(C)C)[C@@H]1O` (some centres not stated), the TGI in the test with MDA-N was 0.179 µM; in the test on SNB-78 CNS, 0.0762 µM; in the test with DMS 273 small cell lung, 0.0282 µM. Also, the GI50 in the test on KM20L2 colon is 12.7 nM; in the test on HOP-18 NSCLC, 40.4 nM.
Regarding `Cc1cnc2ccc(C)c([N+](=O)[O-])c2c1NCCCN(C)C`, the TGI in the test with XF 498 CNS, with KM20L2 colon, with SNB-78 CNS and in the test with DMS 273 small cell lung was over 100 µM in each case.
In turn, `O=C(O)c1cc(-c2ccc3cc4c(cc3c2)OCO4)nc2ccccc12` displayed a TGI in the test on MDA-N of over 100 µM.
On the same count and under the same terms, for `Cc1nc([N+](=O)[O-])cn1-c1nc2ccccn2c1[N+](=O)[O-]` the value was over 100 µM.
In the case of `C=CCNC(=O)NCCCCC(NC(C)=O)C(=O)NCc1ccccc1` (configuration not stated), the TGI in the test on XF 498 CNS, in the test on KM20L2 colon, in the test on HOP-18 NSCLC and with DMS 273 small cell lung was over 100 µM each time.
`NNC(=O)C(=O)N/N=C(\CCCC(=O)Nc1ccc(Cl)cc1)CC(=O)c1ccc(F)cc1`: the TGI in the test with XF 498 CNS, in the test with KM20L2 colon, with HOP-18 NSCLC, in the test with RXF-631 renal and with SNB-78 CNS was over 100 µM throughout.
In the case of `COc1ccc(C(c2ccccc2)(c2ccc(OC)cc2)N2C(=O)NC3C(CCCCC(=O)NCCCCCCOP(OCCC#N)N(C(C)C)C(C)C)SCC32)cc1` (configuration not stated), the TGI worked out at 30.8 µM in the test with XF 498 CNS; 30.8 µM in the test on KM20L2 colon; 24.4 µM with HOP-18 NSCLC; 17.7 µM in the test with RXF-631 renal; 34.6 µM in the test with SNB-78 CNS; 25.3 µM in the test with DMS 273 small cell lung.
